Source: US20110046130A1, “TETRAHYDRONAPHTHYRIDINES AND AZA DERIVATIVES THEREOF AS HISTAMINE H3 RECEPTOR ANTAGONISTS” (Evotec AG, priority 2008, published 2011)

Target: T1, human H3 receptors (Homo sapiens, UniProt Q9Y5N1)
T1 construct: host or cells: CHO-K1
Assay: cAMP quantification protocol for human H3 receptor testing
Type: cell-based
Conditions: inhibition of agonist-induced (100 nM histamine, 10 μM forskolin) decrease of intracellular cAMP; CHO-K1 cell line expressing human H3 receptors; read-out: Potency range (IC50 values)
Procedure: CHO-K1 cell line expressing human H3 receptors were purchased from Euroscreen (Gosselies, Belgium, Cat. no.: ES-392-C)
Human H3 receptor-expressing cell-lines were grown in Ham's F12 [Sigma, Cat. no. N6658], supplemented with 10% FBS [Sigma, Cat. no. F9665], 400 μg/ml G418 [Sigma, Cat. no. N1876] and 250 μg/ml Zeocin [Invitrogen, Cat. no. 46-0509]) according to the protocol provided by Euroscreen.
cAMP Quantification Protocol for Human H3 Receptor Testing
The assay measures the ability of test compounds to inhibit Histamine receptor agonist-induced decrease of intracellular free cAMP (receptor is Gi coupled).
Specifically, a cAMP quantification assay system from DiscoveRx (cAMP XS+; Cat. no. 90-0075) was used.
For the cAMP assay, confluent cells were detached from the culture vessels with 1× trypsin-EDTA solution (Sigma), and seeded into 384-well Costar plates (white, clear bottom, Cat. no. 3707) at a density of 10,000 cells per well. Cells were seeded in a volume of 50 μl in medium without antibiotics and incubated overnight in a humidified atmosphere with 5% CO2 at 37° C. The cAMP assay was performed according to the protocol provided by DiscoveRx.
The cell culture medium was removed and the cells washed once with PBS (50 μl per well). The plates were emptied by inversion and 7.5 μl/well of compound in PBS (containing 1 mM IBMX and 0.03% BSA) were added and incubated for 30 min at 37° C.
Subsequent 7.5 μl/well specific agonist solution was added and the plates for another 30 min incubated at 37° C.
The following agonist solution is used:
100 nM histamine, 10 μM forskolin in PBS (containing 1 mM IBMX and 0.03% BSA)
After the incubation with the agonist, 5 μl/well cAMP XS antibody solution was added followed by 20 μl/well Gal/EII/Lysis(1:5:19)+ED (1:1). The plates were incubated for one hour at room temperature and afterwards 20 μl/well EA reagent was added. The luminescence was developed for approximately three hours at room temperature and the plates were read out using a ‘BMG Novostar’ plate reader.
Test compounds were assayed at 8 concentrations in triplicate. Serial 10-fold dilutions in 100% DMSO were made at a 100-times higher concentration than the final concentration and then diluted with a 2 step protocol in assay buffer to reach the required assay concentrations and 1% DMSO.

T1 sequence (Q9Y5N1 whole entry): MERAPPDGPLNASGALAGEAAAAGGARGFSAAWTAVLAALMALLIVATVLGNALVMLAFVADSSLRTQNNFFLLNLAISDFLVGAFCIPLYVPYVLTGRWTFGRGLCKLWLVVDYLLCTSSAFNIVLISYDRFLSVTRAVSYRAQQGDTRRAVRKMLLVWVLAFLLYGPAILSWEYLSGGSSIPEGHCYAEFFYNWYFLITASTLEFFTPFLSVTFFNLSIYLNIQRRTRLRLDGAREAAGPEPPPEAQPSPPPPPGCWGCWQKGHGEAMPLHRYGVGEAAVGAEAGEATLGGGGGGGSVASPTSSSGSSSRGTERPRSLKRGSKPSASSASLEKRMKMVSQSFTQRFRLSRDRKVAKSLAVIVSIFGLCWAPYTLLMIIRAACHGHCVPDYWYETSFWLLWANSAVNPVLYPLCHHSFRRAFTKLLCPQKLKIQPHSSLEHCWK

Structure (SMILES)	IC50
CN1CCc2nc(O[C@@H]3CCN(C4CCC4)C3)ccc2C1 [Example 5, 2-{[(3R)-1-Cyclobutylpyrrolidin-3-yl]oxy}-6-methyl-5,6,7,8-tetrahydro-1,6-naphthyridine]	0.1 to 0.5 µM
CC(C)N1CCC(Oc2nc3c(cc2C#N)C2CCCC(=O)N2CC3)CC1 (stereo not drawn) [Example 30, 3-{[1-(1-methylethyl)piperidin-4-yl]oxy}-8-oxo-5,8,9,10,11,11a-hexahydro-6H-pyrido[2,1-f][1,6]naphthyridine-2-carbonitrile]	< 0.1 µM
O=C1CCCC2c3ccc(OCCCCN4CCCCC4)nc3CCN12 (stereo not drawn) [Example 25, 3-(4-piperidin-1-ylbutoxy)-5,6,9,10,11,11a-hexahydro-8H-pyrido[2,1-f][1,6]naphthyridin-8-one]	0.1 to 0.5 µM
CN(c1nc2c(cc1C#N)C1CCCC(=O)N1CC2)C1CCN(C2CCC2)CC1 (stereo not drawn) [Example 31, 3-[(1-cyclobutylpiperidin-4-yl)(methyl)amino]-8-oxo-5,8,9,10,11,11a-hexahydro-6H-pyrido[2,1-f][1,6]naphthyridine-2-carbonitrile]	< 0.1 µM
CN1CCc2nc(OC3CCN(C4CC4)CC3)c(C#N)cc2C1 [Example 11, 2-[(1-Cyclopropylpiperidin-4-yl)oxy]-6-methyl-5,6,7,8-tetrahydro-1,6-naphthyridine-3-carbonitrile]	< 0.1 µM
CC(C)N1CCC(Oc2ccc3c(n2)CCN(C)C3)CC1 [Example 8, 6-Methyl-2-{[1-(1-methylethyl)piperidin-4-yl]oxy}-5,6,7,8-tetrahydro-1,6-naphthyridine]	< 0.1 µM
O=C1CCCC2c3ccc(OCCCN4CCCC4)nc3CCN12 (stereo not drawn) [Example 18, 3-(3-pyrrolidin-1-ylpropoxy)-5,6,9,10,11,11a-hexahydro-8H-pyrido[2,1-f][1,6]naphthyridin-8-one]	< 0.1 µM
N#Cc1cc2c(nc1OC1CCN(C3CCC3)CC1)CCN1C(=O)CCCC21 (stereo not drawn) [Example 29, 3-[(1-Cyclobutylpiperidin-4-yl)oxy]-8-oxo-5,8,9,10,11,11a-hexahydro-6H-pyrido[2,1-f][1,6]naphthyridine-2-carbonitrile]	< 0.1 µM
CC(C)N1CCC(Oc2nc3c(cc2C#N)CN(C)CC3)CC1 [Example 10, 6-Methyl-2-{[1-(1-methylethyl)piperidin-4-yl]oxy}-5,6,7,8-tetrahydro-1,6-naphthyridine-3-carbonitrile]	< 0.1 µM
CN1CCc2nc(O[C@@H]3CCN(C4CCCC4)C3)ccc2C1 [Example 3, 2-{[(3R)-1-Cyclopentylpyrrolidin-3-yl]oxy}-6-methyl-5,6,7,8-tetrahydro-1,6-naphthyridine]	0.1 to 0.5 µM
CN1CCc2nc(O[C@H]3CCN(C4CCCC4)C3)ccc2C1 [Example 4, 2-{[(3S)-1-Cyclopentylpyrrolidin-3-yl]oxy}-6-methyl-5,6,7,8-tetrahydro-1,6-naphthyridine]	0.1 to 0.5 µM
O=C1CCCC2c3ccc(OCCCN4CCCCC4)nc3CCN12 (stereo not drawn) [Example 19, 3-(3-piperidin-1-ylpropoxy)-5,6,9,10,11,11a-hexahydro-8H-pyrido[2,1-f][1,6]naphthyridin-8-one]	< 0.1 µM
CN1CCc2nc(OC3CCN(C4CCC4)CC3)ccc2C1 [Example 1, 2-[(1-Cyclobutylpiperidin-4-yl)oxy]-6-methyl-5,6,7,8-tetrahydro-1,6-naphthyridine]	< 0.1 µM
CN1CCC(Oc2ccc3c(n2)CCN(C)C3)CC1 [Example 9, 6-Methyl-2-[(1-methylpiperidin-4-yl)oxy]-5,6,7,8-tetrahydro-1,6-naphthyridine]	0.5 to 5 µM
CN1CCc2nc(OCCCN3CCCC3)ccc2C1 [Example 7, 6-Methyl-2-(3-pyrrolidin-1-ylpropoxy)-5,6,7,8-tetrahydro-1,6-naphthyridine]	< 0.1 µM
CN1CCc2nc(OC3CCN(C4CCCC4)CC3)ccc2C1 [Example 2, 2-[(1-Cyclopentylpiperidin-4-yl)oxy]-6-methyl-5,6,7,8-tetrahydro-1,6-naphthyridine]	< 0.1 µM
CN1CCc2nc(OC3CCN(C4CCC4)CC3)ncc2C1 [Example 13, 2-[(1-Cyclobutylpiperidin-4-yl)oxy]-6-methyl-5,6,7,8-tetrahydropyrido[4,3-d]pyrimidine]	< 0.1 µM
O=C1CCCC2c3ccc(OCCN4CCCCC4)nc3CCN12 (stereo not drawn) [Example 24, 3-(2-piperidin-1-ylethoxy)-5,6,9,10,11,11a-hexahydro-8H-pyrido[2,1-f][1,6]naphthyridin-8-one]	0.5 to 5 µM
CC(C)N1CCC(Oc2ccc3c(n2)CCN2C(=O)CCCC32)CC1 (stereo not drawn) [Example 15, 3-{[1-(1-methylethyl)piperidin-4-yl]oxy}-5,6,9,10,11,11a-hexahydro-8H-pyrido[2,1-f][1,6]naphthyridin-8-one]	< 0.1 µM
CC(C)N1CCC(N(C)c2ccc3c(n2)CCN2C(=O)CCCC32)CC1 (stereo not drawn) [Example 32, 3-{methyl[1-(1-methylethyl)piperidin-4-yl]amino}-5,6,9,10,11,11a-hexahydro-8H-pyrido[2,1-f][1,6]naphthyridin-8-one]	< 0.1 µM
O=C1CCCC2c3ccc(OCCCN4CCOCC4)nc3CCN12 (stereo not drawn) [Example 20, 3-(3-morpholin-4-ylpropoxy)-5,6,9,10,11,11a-hexahydro-8H-pyrido[2,1-f][1,6]naphthyridin-8-one]	0.5 to 5 µM
CN1CCc2nc(OC3CCN(C4CCC4)CC3)c(C#N)cc2C1 [Example 12, 2-[(1-Cyclobutylpiperidin-4-yl)oxy]-6-methyl-5,6,7,8-tetrahydro-1,6-naphthyridine-3-carbonitrile]	< 0.1 µM
CN1CCc2nc(O[C@H]3CCN(C4CCC4)C3)ccc2C1 [Example 6, 2-{[(3S)-1-Cyclobutylpyrrolidin-3-yl]oxy}-6-methyl-5,6,7,8-tetrahydro-1,6-naphthyridine]	0.5 to 5 µM

The remaining lines, values ahead:

IC50	Structure (SMILES)
< 0.1 µM	O=C1CCCC2c3ccc(OC4CCN(C5CCCCC5)CC4)nc3CCN12 (stereo not drawn) [Example 22, 3-[(1-Cyclohexylpiperidin-4-yl)oxy]-5,6,9,10,11,11a-hexahydro-8H-pyrido[2,1-f][1,6]naphthyridin-8-one]
0.1 to 0.5 µM	O=C1CCCC2c3ccc(O[C@@H]4CCN(C5CCC5)C4)nc3CCN12 (mixture of isomers) [Example 16, 3-{[(3R)-1-cyclobutylpyrrolidin-3-yl]oxy}-5,6,9,10,11,11a-hexahydro-8H-pyrido[2,1-f][1,6]naphthyridin-8-one]
< 0.1 µM	O=C1CCC2c3ccc(OC4CCN(C5CCC5)CC4)nc3CCN12 (stereo not drawn) [Example 27, 3-[(1-Cyclobutylpiperidin-4-yl)oxy]-5,9,10,10a-tetrahydropyrrolo[2,1-f][1,6]naphthyridin-8(6H)-one]
0.5 to 5 µM	CN1CCC(Oc2ccc3c(n2)CCN2C(=O)CCCC32)CC1 (stereo not drawn) [Example 23, 3-[(1-Methylpiperidin-4-yl)oxy]-5,6,9,10,11,11a-hexahydro-8H-pyrido[2,1-f][1,6]naphthyridin-8-one]
0.5 to 5 µM	O=C1CCCC2c3ccc(O[C@H]4CCN(C5CCC5)C4)nc3CCN12 (mixture of isomers) [Example 17, 3-{[(3S)-1-cyclobutylpyrrolidin-3-yl]oxy}-5,6,9,10,11,11a-hexahydro-8H-pyrido[2,1-f][1,6]naphthyridin-8-one]
0.1 to 0.5 µM	O=C1CCCC2c3ccc(O[C@H]4CCN(C5CCCC5)C4)nc3CCN12 (stereo partly drawn) [Example 21, 3-{[(3S)-1-cyclopentylpyrrolidin-3-yl]oxy}-5,6,9,10,11,11a-hexahydro-8H-pyrido[2,1-f][1,6]naphthyridin-8-one]
< 0.1 µM	O=C1CCCC2c3ccc(OC4CCN(C5CCC5)CC4)nc3CCN12 (stereo not drawn) [Example 14, 3-[(1-Cyclobutylpiperidin-4-yl)oxy]-5,6,9,10,11,11a-hexahydro-8H-pyrido[2,1-f][1,6]naphthyridin-8-one]
< 0.1 µM	O=C1CCCC2c3ccc(OC4CCN(CC5CC5)CC4)nc3CCN12 (stereo not drawn) [Example 33, 3-{[1-(cyclopropylmethyl)piperidin-4-yl]oxy}-5,6,9,10,11,11a-hexahydro-8H-pyrido[2,1-f][1,6]naphthyridin-8-one]
< 0.1 µM	O=C1CCC2c3ccc(OC4CCN(C5CCCC5)CC4)nc3CCN12 (stereo not drawn) [Example 28, 3-[(1-Cyclopentylpiperidin-4-yl)oxy]-5,9,10,10a-tetrahydropyrrolo[2,1-f][1,6]naphthyridin-8(6H)-one]
< 0.1 µM	O=C1CCCC2c3ccc(OC4CCN(C5CCCC5)CC4)nc3CCN12 (stereo not drawn) [Example 26, 3-[(1-Cyclopentylpiperidin-4-yl)oxy]-5,6,9,10,11,11a-hexahydro-8H-pyrido[2,1-f][1,6]naphthyridin-8-one]
